From publication PMC5519977, “Redox-dependent substrate-cofactor interactions in the Michaelis-complex of a flavin-dependent oxidoreductase” (Nature Communications, 2017)

The compounds below were run against T1, xenobiotic reductase A (XenA) (Pseudomonas putida, UniProt Q3ZDM6) (assay: stopped-flow reoxidation of reduced enzyme). Conditions: reduced enzyme (FMNH-), anoxic, 50 mM Tris/HCl pH 8.0, 25 °C.
T1 construct: recombinant in E. coli Rosetta (DE3), pET28a; N-terminal His-tag removed with TEV protease; reconstituted with FMN
T1 sequence (Q3ZDM6 entry or part of it): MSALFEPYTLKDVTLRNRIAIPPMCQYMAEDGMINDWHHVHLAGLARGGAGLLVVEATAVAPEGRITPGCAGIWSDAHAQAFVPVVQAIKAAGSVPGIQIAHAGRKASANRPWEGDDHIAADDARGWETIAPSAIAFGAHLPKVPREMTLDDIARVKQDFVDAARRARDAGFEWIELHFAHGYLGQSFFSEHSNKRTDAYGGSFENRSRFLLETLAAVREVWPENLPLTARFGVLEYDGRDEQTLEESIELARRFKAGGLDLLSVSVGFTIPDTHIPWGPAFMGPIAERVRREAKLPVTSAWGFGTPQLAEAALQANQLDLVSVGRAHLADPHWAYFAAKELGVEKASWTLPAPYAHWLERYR
Type: biochemical
With `O=c1ccc2ccc(O)cc2o1` [7-hydroxycoumarin] the dissociation constant was “dissociation constants of the reduced Michaelis complexes for the respective substrates”. In the case of `O=c1ccc2cccc(O)c2o1` [8-hydroxycoumarin], the dissociation constant is reported as “dissociation constants of the reduced Michaelis complexes for the respective substrates”. With `O=c1ccc2ccccc2o1` [coumarin] the dissociation constant was “dissociation constants of the reduced Michaelis complexes for the respective substrates”.
